Assay results from patent US10780090B2, “Heteroaryl compounds useful as inhibitors of SUMO activating enzyme” (Millennium Pharmaceuticals, Inc., priority 2014, dated 2020).

Molecular target: recombinant human SAE enzyme (Homo sapiens (Human), UniProt Q9UBT2)
Assay: SAE HTRF enzyme assay
Type: biochemical
Details: for inhibition at 0.111 µM: read-out: Percent Inhibition
How it was run: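 Sumoylation of Ubc9-GST by SAE was followed at low ATP (0.5 μM), pH 7.5, 24° C. for 105 min. Product was detected by HTRF with antibody pairs against Flag and GST tags.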

[1] = SAE inhibition at compound concentration 0.111 μM
[2] = SAE inhibition, class symbols, legend in nM

Chain of recombinant human SAE enzyme (Q9UBT2 whole entry): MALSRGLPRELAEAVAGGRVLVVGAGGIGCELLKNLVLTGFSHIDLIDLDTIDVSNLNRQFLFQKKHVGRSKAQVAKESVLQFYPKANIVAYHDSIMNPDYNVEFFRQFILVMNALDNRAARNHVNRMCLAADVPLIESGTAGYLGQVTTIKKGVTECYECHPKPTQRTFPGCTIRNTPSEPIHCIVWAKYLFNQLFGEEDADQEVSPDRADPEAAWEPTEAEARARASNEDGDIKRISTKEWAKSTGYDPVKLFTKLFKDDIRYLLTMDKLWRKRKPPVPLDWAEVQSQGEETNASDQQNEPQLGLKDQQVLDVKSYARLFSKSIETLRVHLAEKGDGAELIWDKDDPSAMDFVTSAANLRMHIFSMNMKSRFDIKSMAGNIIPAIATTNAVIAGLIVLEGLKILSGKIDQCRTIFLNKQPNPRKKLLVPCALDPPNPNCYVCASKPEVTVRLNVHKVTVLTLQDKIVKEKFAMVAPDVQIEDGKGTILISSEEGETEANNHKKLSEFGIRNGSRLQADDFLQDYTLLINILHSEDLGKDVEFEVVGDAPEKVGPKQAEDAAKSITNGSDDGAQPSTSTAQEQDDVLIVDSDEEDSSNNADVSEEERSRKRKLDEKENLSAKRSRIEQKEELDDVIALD
Chain of recombinant human SAE enzyme (Q9UBE0 whole entry partner): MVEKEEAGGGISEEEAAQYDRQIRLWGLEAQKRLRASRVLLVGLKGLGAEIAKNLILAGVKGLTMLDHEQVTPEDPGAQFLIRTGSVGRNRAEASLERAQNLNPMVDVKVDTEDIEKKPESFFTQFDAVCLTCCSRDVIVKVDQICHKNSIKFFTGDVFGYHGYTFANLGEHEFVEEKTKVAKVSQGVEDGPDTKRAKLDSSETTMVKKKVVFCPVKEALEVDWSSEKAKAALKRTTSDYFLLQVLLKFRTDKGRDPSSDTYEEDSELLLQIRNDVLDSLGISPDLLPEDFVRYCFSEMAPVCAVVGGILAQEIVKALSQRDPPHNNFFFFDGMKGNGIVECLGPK

| SMILES | Percent Inhibition [1] [%] | IC50 [2] [nM] | inhibition at 0.111 µM (Concentration 0.111 μM) [%] | IC50 (class symbols A/B/C) [nM] | Percent Inhibition (Concentration 0.111 μM) |
| --- | --- | --- | --- | --- | --- |
| Cc1sc(C(=O)c2cncnc2N[C@@H]2C[C@H](COS(N)(=O)=O)[C@@H](O)C2)nc1C1OCCc2ccc(Cl)cc21 (single isomer, unassigned) [I-300b, [(1R,2S,4R)-4-{[5-({4-[(1R)-7-chloro-3,4-dihydro-1H-isochromen-1-yl]-5-methyl-1,3-thiazol-2-yl}carbonyl)pyrimidin-4-yl]amino}-2-hydroxycyclopentyl]methyl sulfamate or [(1R,2S,4R)-4-{[5-({4-[(1S)-7-chloro-3,4-dihydro-1H-isochromen-1-yl]-5-methyl-1,3-thiazol-2-yl}carbonyl)pyrimidin-4-yl]amino}-2-hydroxycyclopentyl]methyl sulfamate] | 101 | < 10 |  |  |  |
| Cc1sc(C(=O)c2cncnc2N[C@@H]2C[C@H](COS(N)(=O)=O)[C@@H](O)C2)cc1[C@@H]1OCCc2cnc(Cl)cc21 (mixture of isomers) [I-316, [(1R,2S,4R)-4-{[5-({4-[(1R)-7-chloro-3,4-dihydro-1H-pyrano[4,3-c]pyridin-1-yl]-5-methyl-2-thienyl}carbonyl)pyrimidin-4-yl]amino}-2-hydroxycyclopentyl]methyl sulfamate and [(1R,2S,4R)-4-{[5-({4-[(1S)-7-chloro-3,4-dihydro-1H-pyrano[4,3-c]pyridin-1-yl]-5-methyl-2-thienyl}carbonyl)pyrimidin-4-yl]amino}-2-hydroxycyclopentyl]methyl sulfamate] | 94 | < 10 |  |  |  |
| Cc1sc(C(=O)c2cncnc2N[C@@H]2C[C@H](COS(N)(=O)=O)[C@@H](O)C2)cc1Cn1cc(I)cn1 [I-37, [(1R,2S,4R)-2-hydroxy-4-{[5-({4-[(4-iodo-1H-pyrazol-1-yl)methyl]-5-methyl-2-thienyl}carbonyl)pyrimidin-4-yl]amino}cyclopentyl]methyl sulfamate] |  |  | 98 |  |  |
| NS(=O)(=O)OC[C@H]1C[C@@H](Nc2ncncc2C(=O)c2cc(CN3CCN(c4ccccc4)CC3)cs2)C[C@@H]1O [I-241, [(1R,2S,4R)-2-hydroxy-4-{[5-({4-[(4-phenylpiperazin-1-yl)methyl]-2-thienyl}carbonyl)pyrimidin-4-yl]amino}cyclopentyl]methyl sulfamate] |  |  | 18 | 100 to 1000 |  |
| NS(=O)(=O)OC[C@H]1C[C@@H](Nc2ncncc2C(=O)c2cc(CNCc3ccccc3)cs2)C[C@@H]1O [I-222, [(1R,2S,4R)-4-{[5-({4-(Benzylamino)methyl]-2-thienyl)carbonyl)pyrimidin-4-yl]amino}-2-hydroxycyclopentyl]methyl sulfamate] |  |  |  | 100 to 1000 | 31 |
| CN[C@H](c1cccc(Cl)c1)c1csc(C(=O)c2cncnc2N[C@@H]2C[C@H](COS(N)(=O)=O)[C@@H](O)C2)c1 (single isomer, unassigned) [I-47b, [(1R,2S,4R)-4-{[5-({4-[(R)-(3-chlorophenyl)(methylamino)methyl]-2-thienyl}carbonyl)pyrimidin-4-yl]amino}-2-hydroxycyclopentyl]methyl sulfamate or [(1R,2S,4R)-4-{[5-({4-[(S)-(3-chlorophenyl)(methylamino)methyl]-2-thienyl}carbonyl)pyrimidin-4-yl]amino}-2-hydroxycyclopentyl]methyl sulfamate] |  |  |  | < 10 | 99 |
| NS(=O)(=O)OC[C@H]1C[C@@H](Nc2ncncc2C(=O)c2cc([C@H](O)c3cccc(Cl)c3)cs2)C[C@@H]1O (single isomer, unassigned) [I-4a, [(1R,2S,4R)-4-{[5-({4-[(R)-(3-chlorophenyl)(hydroxy)methyl]-2-thienyl}carbonyl)pyrimidin-4-yl]amino}-2-hydroxycyclopentyl]methyl sulfamate or [(1R,2S,4R)-4-{[5-({4-[(S)-(3-chlorophenyl)(hydroxy)methyl]-2-thienyl}carbonyl)pyrimidin-4-yl]amino}-2-hydroxycyclopentyl]methyl sulfamate] |  |  |  | < 10 | 99 |
| NS(=O)(=O)OC[C@H]1C[C@@H](Nc2ncncc2C(=O)c2cc(Cc3ccc(Cl)o3)cs2)C[C@@H]1O [I-66, [(1R,2S,4R)-4-{[5-({4-[(5-chloro-2-furyl)methyl]-2-thienyl}carbonyl)pyrimidin-4-yl]amino}-2-hydroxycyclopentyl]methyl sulfamate] |  |  | 98 | < 10 |  |
| NS(=O)(=O)OC[C@H]1C[C@@H](Nc2ncncc2C(=O)c2cc(Cc3cncc(Cl)c3)cs2)C[C@@H]1O [I-210, [(1R,2S,4R)-4-{[5-({4-[(5-chloropyridin-3-yl)methyl]-2-thienyl}carbonyl)pyrimidin-4-yl]amino}-2-hydroxycyclopentyl]methyl sulfamate] |  |  | 50 | 100 to 1000 |  |
| NS(=O)(=O)OC[C@H]1C[C@@H](Nc2ncncc2C(=O)c2cc(CN3CC=CC3)cs2)C[C@@H]1O [I-219, {(1R,2S,4R)-4-[(5-{[4-(2,5-dihydro-1H-pyrrol-1-ylmethyl)-2-thienyl]carbonyl}pyrimidin-4-yl)amino]-2-hydroxycyclopentyl}methyl sulfamate] |  |  | 32 | 100 to 1000 |  |
| NS(=O)(=O)OC[C@H]1C[C@@H](Nc2ncncc2C(=O)c2cc(COc3cccc(Cl)c3Cl)cs2)C[C@@H]1O [I-180, [(1R,2S,4R)-4-{[5-({4-[(2,3-dichlorophenoxy)methyl]-2-thienyl}carbonyl)pyrimidin-4-yl]amino}-2-hydroxycyclopentyl]methyl sulfamate] |  |  | 84 | 10 to 100 |  |
| NS(=O)(=O)OC[C@H]1C[C@@H](Nc2ncncc2C(=O)c2cc([C@H]3NCCc4ccccc43)c(Cl)s2)C[C@@H]1O (single isomer, unassigned) [I-279a, [(1R,2S,4R)-4-{[5-({5-chloro-4-[(1S)-1,2,3,4-tetrahydroisoquinolin-1-yl]-2-thienyl}carbonyl)pyrimidin-4-yl]amino}-2-hydroxycyclopentyl]methyl sulfamate or [(1R,2S,4R)-4-{[5-({5-chloro-4-[(1R)-1,2,3,4-tetrahydroisoquinolin-1-yl]-2-thienyl}carbonyl)pyrimidin-4-yl]amino}-2-hydroxycyclopentyl]methyl sulfamate] |  |  |  | < 10 | 100 |
| C=C(c1cccc(Br)c1)c1csc(C(=O)c2cncnc2N[C@@H]2C[C@H](COS(N)(=O)=O)[C@@H](O)C2)c1 [I-164, [(1R,2S,4R)-4-{[5-({4-[1-(3-Bromophenyl)vinyl]-2-thienyl}carbonyl)pyrimidin-4-yl]amino)-2-hydroxycyclopentyl]methyl sulfamate] |  |  | 92 | 10 to 100 |  |
| NS(=O)(=O)OC[C@H]1C[C@@H](Nc2ncncc2C(=O)c2cc(CN3CCn4ccnc4C3)cs2)C[C@@H]1O [I-190, {(1R,2S,4R)-4-[(5-{[4-(5,6-dihydroimidazo[1,2-a]pyrazin-7(8H)-ylmethyl)-2-thienyl]carbonyl}pyrimidin-4-yl)amino]-2-hydroxycyclopentyl}methyl sulfamate] |  |  | 77 | 10 to 100 |  |
| NS(=O)(=O)OC[C@H]1C[C@@H](Nc2ncncc2C(=O)c2cc([C@@H](O)c3ccccc3Cl)c(Cl)s2)C[C@@H]1O (mixture of isomers) [I-86, [(1R,2S,4R)-4-{[5-({5-chloro-4-[(S)-(2-chlorophenyl)(hydroxy)methyl]-2-thienyl}carbonyl)pyrimidin-4-yl]amino}-2-hydroxycyclopentyl]methyl sulfamate and [(1R,2S,4R)-4-{[5-({5-chloro-4-[(R)-(2-chlorophenyl)(hydroxy)methyl]-2-thienyl}carbonyl)pyrimidin-4-yl]amino}-2-hydroxycyclopentyl]methyl sulfamate] |  |  |  | < 10 | 96 |
| CN1CCc2ccc(Cl)cc2[C@@H]1c1cc(C(=O)c2cncnc2N[C@@H]2C[C@H](COS(N)(=O)=O)[C@@H](O)C2)sc1Cl (single isomer, unassigned) [I-311a, [(1R,2S,4R)-4-{[5-({5-chloro-4-[(1R)-7-chloro-2-methyl-1,2,3,4-tetrahydroisoquinolin-1-yl]-2-thienyl}carbonyl)pyrimidin-4-yl]amino}-2-hydroxycyclopentyl]methyl sulfamate or [(1R,2S,4R)-4-{[5-({5-chloro-4-[(1S)-7-chloro-2-methyl-1,2,3,4-tetrahydroisoquinolin-1-yl]-2-thienyl}carbonyl)pyrimidin-4-yl]amino}-2-hydroxycyclopentyl]methyl sulfamate] | 65 | 10 to 100 |  |  |  |
| Cc1nc2c(s1)CCO[C@H]2c1cc(C(=O)c2cncnc2N[C@@H]2C[C@H](COS(N)(=O)=O)[C@@H](O)C2)sc1C (single isomer, unassigned) [I-287a, [(1R,2S,4R)-2-hydroxy-4-{[5-({5-methyl-4-[(4S)-2-methyl-6,7-dihydro-4H-pyrano[3,4-d][1,3]thiazol-4-yl]-2-thienyl}carbonyl)pyrimidin-4-yl]amino}cyclopentyl]methyl sulfamate or [(1R,2S,4R)-2-hydroxy-4-{[5-({5-methyl-4-[(4R)-2-methyl-6,7-dihydro-4H-pyrano[3,4-d][1,3]thiazol-4-yl]-2-thienyl}carbonyl)pyrimidin-4-yl]amino}cyclopentyl]methyl sulfamate] | 9 | 100 to 1000 |  |  |  |
| Cc1sc(C(=O)c2cncnc2N[C@@H]2C[C@H](COS(N)(=O)=O)[C@@H](O)C2)cc1C1OCCc2ccc(C(F)(F)F)nc21 (single isomer, unassigned) [I-297a, [(1R,2S,4R)-2-hydroxy-4-{[5-({5-methyl-4-[(8S)-2-(trifluoromethyl)-5,8-dihydro-6H-pyrano[3,4-b]pyridin-8-yl]-2-thienyl}carbonyl)pyrimidin-4-yl]amino}cyclopentyl]methyl sulfamate or [(1R,2S,4R)-2-hydroxy-4-{[5-({5-methyl-4-[(8R)-2-(trifluoromethyl)-5,8-dihydro-6H-pyrano[3,4-b]pyridin-8-yl]-2-thienyl}carbonyl)pyrimidin-4-yl]amino}cyclopentyl]methyl sulfamate] | 31 | 100 to 1000 |  |  |  |
